This data set is described as follows: Heating of the separated supernatant in a thermostatic bath: separation into amine phase and aqueous phase. The format is physicochemical. The source says:
The element 15 that separates the supernatant phase F into the aqueous phase H and the organic phase J and recovers the tertiary amine recovers the tertiary amine included in the supernatant phase F. As the element 15 that separates the supernatant phase F into the aqueous phase H and the organic phase J and recovers the tertiary amine, the mechanism of heating the supernatant phase F is preferable. For example, the supernatant phase F is stored in a second container, not shown, and the supernatant phase F is heated in the second container. As the temperature of the supernatant phase F is increased, the compatibility of the tertiary amine compounds of the embodiment with water changes, and supernatant phase F separates into the organic phase and the aqueous phase. The supernatant phase F separates into the aqueous phase H and the organic phase J at a higher temperature than the first mixture D which separates into the phases. It is preferable that the supernatant phase F is heated to a temperature higher than the temperature of the first mixture (the temperature at which the first mixture D is phase-separated (the temperature at which the supernatant phase F and the concentrated phase G are separated separately)). It is preferable that the supernatant phase F is heated to a temperature 5[° C.] or higher than the temperature of the first mixture D (the temperature at which the first mixture D is phase-separated (the temperature at which the supernatant phase F and the concentrated phase G are separated separately)). It is preferable that the supernatant phase F is heated to a temperature 10[° C.] or higher than the temperature of the first mixture D (the temperature at which the first mixture D is phase-separated (the temperature at which the supernatant phase F and the concentrated phase G are separated separately)). It is preferable that the supernatant phase F is heated to a temperature 20[° C.] or higher than the temperature of the first mixture D (the temperature at which the first mixture D is phase-separated (the temperature at which the supernatant phase F and the concentrated phase G are separated separately)). It is preferable that the supernatant phase F is heated to a temperature 20 [° C.] or higher than the temperature of the first mixture D. It is preferable that the supernatant phase F is heated to a temperature 30 [° C.] or higher than the temperature of the first mixture D (the temperature at which the first mixture D is phase-separated (the temperature at which the supernatant phase F and the concentrated phase G are separated separately)). The supernatant phase F is preferably heated to 35[° C.] or more and less than 90[° C.]. From the viewpoint of reducing energy consumption, it is more preferably that the supernatant phase F is heated to 35[° C.] or more and 75[° C.] or less. The supernatant phase F is preferably phase-separated at 35 [° C.] or more and less than 90[° C.]. From the viewpoint of reducing energy consumption, the supernatant phase F is more preferably phase-separated at 35[° C.] or more and less than 90[° C.]. It is preferable to use waste heat generated at a plant or the like to heat the supernatant phase F.
When the separated supernatant solution is heated in a thermostatic bath at 70[° C.], it is separated into an amine phase and an aqueous phase. When the amine phase is separated and used for the same test, the salt removal rate of 97.5 [%] is obtained, and the concentration of the lower phase being separated of 21.2 [wt %] is obtained, which is the similar results as in the first test.

Setting [1] is: supernatant of the S/F 4.0 test.
The mark [2] stands for this setting: supernatant of the S/F 6.0 test.
The mark [3] stands for this setting: supernatant of the S/F 7.0 test.
Setting [4] is: supernatant of the S/F 10.0 test.

Take `C1CCN(CCCN2CCCC2)C1` [chemical formula (1-2)]: the “Separating Temperature Water/Amine” value reads like this: under setting [1], 70 °C; under setting [2], 70 °C; under setting [3], 60 °C; under setting [4], 70 °C.

For the compound `CCOC(=O)N1CCN(CCCN2CCN(C(=O)OCC)CC2)CC1` [chemical formula (2-1)], the “Separating Temperature Water/Amine” value came to 70 °C under setting [1], 70 °C under setting [2], 50 °C under setting [3] and 70 °C under setting [4].

For the origin of these results see patent US20240308878A1, “WATER TREATMENT SYSTEM, WATER TREATMENT METHOD, AND AMINE SOLUTION” (KABUSHIKI KAISHA TOSHIBA, priority 2023, published 2024).
